Measurements: patent US20170223976A1, “MODIFIED MILK POWDER CONTAINING 1,5-ANHYDRO-D-GLUCITOL” (NIHON STARCH CO., LTD., priority 2015, published 2017)

What was measured:
[1] = test system: type 2 diabetes model mice; settings: mouse, in vivo; cited from earlier work
[2] = test system: CSH-1 gene; assay: CSH-1 gene expression in placental trophoblastic cells, real-time RT-PCR; type: cell-based, human; settings: 160 μg/mL 1,5-AG, after 72 hours
Protocol: The influence upon these two genes (PSG-1 and CSH-1) of 1,5-AG was analyzed by a real-time RT-PCR method using placental trophoblastic cells. As a preliminary study, the expression level of PSG-1 was analyzed at three concentrations (1 μg/mL or less, 40 μg/mL and 160 μg/mL of 1,5-AG) and for three sampling times (3, 24 and 72 hours). A test was conducted by the following method.
Human placental villous trophoblastic cells (ScienCell Research Laboratories)
The human placental villous trophoblastic cells were initiated in a T-75 flask by using a trophoblast medium (to be simply referred to as “medium” hereinafter) to be cultured in a CO2 incubator (5% CO2, 37° C., moistening). […] Then, the supernatant was removed by centrifugation (180 g, 5 minutes), a new medium was added to stir the cells, the number of the cells was counted by using a corpuscle calculating board, and a medium was used to achieve a target concentration (4.0×10^3 cells/100 μL). […]
The PCR reaction was carried out under the conditions of 95° C.·30 sec−(95° C.·10 sec−60° C.·30 sec)×45 cycles−95° C.·15 sec−55° C.·15 sec−95° C.·15 sec, and the dissociation curve of the PCR product was obtained after the end of the PCR reaction. The relative expression level was calculated by the ? […]

Structure (SMILES): OC[C@H]1OC[C@H](O)[C@@H](O)[C@@H]1O [1,5-AG, 1,5-anhydro-D-glucitol]
- anti-inflammatory effect [1]: anti-inflammatory effect
- expression level of CSH-1 gene relative to non-added section [2]: 0.92 time
